The record followed here is ChEMBL document CHEMBL1142372, “Design, synthesis, and structure-activity relationship studies of 4-quinolinyl- and 9-acrydinylhydrazones as potent antimalarial agents” (J Med Chem, 2008).

Calls of active or inactive are those of the source. The rule behind the calls is not given here.

Test [1] has as its target T1, Histidine-rich protein PFHRP-II (Plasmodium falciparum) (UniProt P05227).
T1 sequence (whole entry): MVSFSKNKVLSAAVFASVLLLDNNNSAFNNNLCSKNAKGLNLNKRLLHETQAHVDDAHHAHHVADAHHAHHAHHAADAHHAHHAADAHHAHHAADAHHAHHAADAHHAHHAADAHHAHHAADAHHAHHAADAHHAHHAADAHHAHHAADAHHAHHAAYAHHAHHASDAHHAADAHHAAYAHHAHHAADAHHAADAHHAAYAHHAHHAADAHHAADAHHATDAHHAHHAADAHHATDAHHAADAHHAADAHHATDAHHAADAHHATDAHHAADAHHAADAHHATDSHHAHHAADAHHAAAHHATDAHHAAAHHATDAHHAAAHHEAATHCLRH
The test is described as follows: Inhibition of beta-hematin formation by BHIA. Type of test: functional.

For the next test, the system named is KB. The test is described as follows: Cytotoxicity against human KB cells. Type of test: functional. The settings on record: read-out: ED50 (the source's name).
For test [2], the system named is Plasmodium berghei. The test is described as follows: Reduced parasitemia in Plasmodium berghei ANKA infected BALB/c mice (Mus musculus) at 10 mg/kg intraperitoneal dose after 4 days. It counts as functional. Set-up: scale not given: the % may be the effect or the level left.
Test [3] relates to Mus musculus. The test is described as follows: Survival of Plasmodium Berghei ANKA infected BALB/c mice (Mus musculus) at 10 mg/kg, intraperitoneally. It counts as functional, organism-based. Details: dose 10 mg/kg.
Test [4] concerns Plasmodium falciparum. The test can be described thus: Antiplasmodial activity against chloroquine-sensitive Plasmodium falciparum D10 by [3H]hypoxanthine incorporation. It counts as functional, organism-based.
The subject of test [5] is Plasmodium falciparum. The test can be described thus: Antiplasmodial activity against chloroquine-resistant Plasmodium falciparum W2 by [3H]hypoxanthine incorporation. It counts as functional, organism-based.
For test [6], the system named is Plasmodium falciparum. The test can be described thus: Antiplasmodial activity against chloroquine-sensitive Plasmodium falciparum 3D7 by [3H]hypoxanthine incorporation. Type of test: functional, organism-based.
Test [7] has as its system Plasmodium falciparum. The test can be described thus: Antiplasmodial activity against chloroquine-resistant Plasmodium falciparum K1 by [3H]hypoxanthine incorporation. Type of test: functional, organism-based.
Test [8] has as its system Plasmodium berghei. The test is described as follows: Antimalarial activity against Plasmodium berghei ANKA infected BALB/c mice (Mus musculus) as reduced parasitaemia at 30 mg/kg intraperitoneal dose after 4 days. Type of test: functional. Details: scale not given: the % may be the effect or the level left.
The test system of test [9] is Mus musculus. The test is described as follows: Survival of Plasmodium Berghei ANKA infected BALB/c mice (Mus musculus) at 30 mg/kg, intraperitoneally. It counts as functional, organism-based. Details: dose 30 mg/kg.

For the compound `CCN(CC)CCCC(C)Nc1ccnc2cc(Cl)ccc12` (stereo not given) [CHLOROQUINE], the Activity entry was “Dose-dependent effect” in test [1] and 98% in the test with Plasmodium berghei [2]. Besides, the EC50 with KB came out at 260000 nM. Moreover, in the test with Mus musculus [3], the outcome was Active.
Take `Oc1cc(/C=N/Nc2ccnc3cc(Cl)ccc23)ccc1CN1CCCC1`: the IC50 in the test with Plasmodium falciparum [4] stood at 21.4 nM; with Plasmodium falciparum [5] it was 18.9 nM; with Plasmodium falciparum [6], 0.9 nM; in the test with Plasmodium falciparum [7], 39.6 nM. The EC50 in the test with KB is 152000 nM. Moreover, in the test on Plasmodium berghei [8], the Activity came to 71%. Also, the result with Mus musculus [9] was Active.
For the compound `Clc1ccc2c(N/N=C/c3ccc(CN4CCCC4)cc3)ccnc2c1`, the Activity result in [1] is “Dose-dependent effect”; with Plasmodium berghei [8] it was 83%. Further, in the test on KB, the EC50 was 19500 nM. Also, the outcome in the test on Mus musculus [9] was Active.
For the compound `COc1ccc(/C=N/Nc2ccnc3ccc(OC)cc23)cc1`, 65.1 nM corresponded to half-maximal inhibition with Plasmodium falciparum [6] (IC50). Also, the Activity in the test with Plasmodium berghei [8] is listed as 38%.
As to `COc1ccc2nc3cc(Cl)ccc3c(N/N=C/c3ncc[nH]3)c2c1`, the EC50 in the test with KB amounted to 5100 nM. The compound further displayed an Activity in the test with Plasmodium berghei [8] of 40%. For the same compound, in the test with Mus musculus [9], the result was Active.
Consider `FC(F)(F)c1ccc(-c2n[nH]cc2/C=N/Nc2ccnc3cc(Cl)ccc23)cc1`, for which the half-maximal inhibitory concentration (IC50) in the test with Plasmodium falciparum [4] came out at 186 nM; in the test with Plasmodium falciparum [5], 258 nM; with Plasmodium falciparum [6], 5 nM; in the test with Plasmodium falciparum [7], 39.6 nM. In test [1], the Activity result was “Dose-dependent effect”. Also, in the test with KB, the EC50 turned out to be 1200 nM.
In the case of `Clc1ccc2c(N/N=C/c3ccc[nH]3)ccnc2c1`, the IC50 in the test on Plasmodium falciparum [4] worked out at 210 nM; with Plasmodium falciparum [5], 256 nM; in the test with Plasmodium falciparum [6] it was 25.8 nM; with Plasmodium falciparum [7], 53.1 nM. Further, the EC50 in the test with KB came out at 4800 nM.
Turning to `Clc1ccc2c(N/N=C/c3ncc[nH]3)ccnc2c1`, the IC50 in the test with Plasmodium falciparum [4] is 65.2 nM; in the test on Plasmodium falciparum [5] it was 23.7 nM; in the test on Plasmodium falciparum [6], 5.9 nM; in the test on Plasmodium falciparum [7] it was 31.6 nM. Moreover, the Activity entry in test [1] is “Dose-dependent effect”. In the test on KB, the EC50 worked out at 19500 nM.
Regarding `COc1ccc2nc3cc(Cl)ccc3c(N/N=C/c3ccc(CN4CCCC4)cc3)c2c1`, in the test on Plasmodium berghei [8], the Activity amounted to 19%. The outcome with Mus musculus [9] was Active.
Take `Clc1ccc2c(N/N=C/c3ccco3)ccnc2c1`: the IC50 in the test with Plasmodium falciparum [4] is 949 nM; with Plasmodium falciparum [5], 1390 nM; in the test with Plasmodium falciparum [6], 169 nM; in the test with Plasmodium falciparum [7], 824 nM. In test [1], the Activity result was “Dose-dependent effect”. Besides, the EC50 in the test with KB turned out to be 19900 nM.

Broadly, the IC50 is the concentration that gives 50% inhibition.
